Changes are numbered by the printed parent chain.
Columns and labels:
[1] = target: GRG1 EPSP synthase variant GRG1(EVO1), SEQ ID NO:28 (Q-loop core position 10 M, 12 L, 16 F) (Pseudomonas putida, UniProt Q683S1, I93M/I99F/M95L); experiment: EPSP synthase kinetics (AMPLEX Red fluorescence assay); type: biochemical; details: in words, relative to GRG1
Description: (§3) Extracts were typically incubated with all assay components except shikimate-3-phosphate and AMPLEX™ Red for 5 minutes at room temperature, and assays were started by adding shikimate-3-phosphate and AMPLEX® Red.
(§4) Following full determination of kinetic parameters, the kinetic constants were determined as follows, adjusting for the quantity of protein determined by either antibody dot-blot analysis as described herein, or by Bradford Assay, as known in the art.

[2] = target: GRG1 EPSP synthase variant EVO2, SEQ ID NO:5 (clone L1-C; Q-loop core position 12 A) (Pseudomonas putida, UniProt Q683S1, M95A); experiment: as above; type: biochemical; details: in words, relative to GRG1
Description: as §3, §4

[3] = target: GRG1 EPSP synthase variant EVO3, SEQ ID NO:37 (Q-loop core position 2 K, 10 G, 14 P, 16 L) (Pseudomonas putida, UniProt Q683S1, D85K/I93G/I99L/T97P); experiment: as above; type: biochemical; details: in words
Description: as §3, §4

[4] = target: GRG1 EPSP synthase variant EVO4, SEQ ID NO:43 (Q-loop core position 2 N, 10 I, 14 A, 16 I) (Pseudomonas putida, UniProt Q683S1, D85N/T97A); experiment: as above; type: biochemical; details: in words
Description: as §3, §4

[5] = system: maize plants expressing GRG1(EVO5); experiment: Glyphosate spray of transgenic maize plants; type: in vivo; details: 14 mM glyphosate spray
Description: (§1) The grg1 (evo5) gene and grg1 (evo6) genes were each cloned into a plant expression vector suitable for Agrobacterium-mediated transformation, such vector containing at least (1) a promoter capable of expression in a plant cell, (2) a chloroplast peptide leader coding sequence, (3) a transcriptional terminator. The resulting clones, pAX4014 and pAX4032 respectively, were transferred to Agrobacterium as known in the art and described herein, and the resulting Agrobacterium strain used to develop transgenic maize callus and ultimately transgenic maize plants.
(§2) To transgenic plants were sprayed with glyphosate formulations of 14 mM glyphosate after adaptation to soil, and the resistance to the herbicide was scored after two weeks relative to non-transgenic controls.

[6] = system: maize plants expressing GRG1(EVO6); experiment: Glyphosate spray of transgenic maize plants; type: in vivo; details: 14 mM glyphosate spray
Description: as §1, §2

[7] = system: EPSP synthase
Description: For any one glyphosate concentration, EPSP synthase activity was measured as a function of a broad range of PEP concentrations. The data were fit to the Michaelis-Menten equation using […]® software (Synergy Software) and used to determine the Km (Km apparent) of the EPSP synthase at that glyphosate concentration.

[8] = system: BL21*DE3 competent E. coli cells; experiment: Screening for glyphosate resistance on plates (growth on M63+ agar with glyphosate); type: cell-based; details: kanamycin, IPTG, glyphosate concentration as in value
Description: Library ligations were transformed into BL21*DE3 competent E. coli cells (Invitrogen). The transformations were performed according to the manufacturer's instructions with the following modifications. After incubation for 1 hour at 37° C. in SOC medium, the cells were sedimented by centrifugation (5 minutes, 1000×g, 4° C.). The cells were washed with 1 ml M63+, centrifuged again, and the supernatant decanted. The cells were washed a second time with 1 ml M63+ and resuspended in 200 ul M63+.
For selection of mutant GRG1 enzymes conferring glyphosate resistance in E. coli, the cells were plated onto M63+ agar medium plates containing 50 mM glyphosate, 0.05 mM IPTG (isopropyl-beta-D-thiogalactopyranoside), and 50 ug/ml kanamycin. M63+ medium contains 100 mM KH2PO4, 15 mM (NH4)2SO4, 50 μM CaCl2, 1 μM FeSO4, 50 μM MgCl2, 55 mM glucose, 25 mg/liter L-proline, 10 mg/liter thiamine HCl, sufficient NaOH to adjust the pH to 7.0, and 15 g/liter agar. The plates were incubated for 36 hours at 37° C.

[9] = Description: DNA from grg1 (evo5) was mutagenized by PCR as known in the art, and cloned into pRSF1b (Invitrogen), and a library of mutagenized clones identified by virtue of growth on 50 mM glyphosate.

O=C(O)CNCP(=O)(O)O [glyphosate, N-phosphonomethylglycine]
Ki for glyphosate [1]: improved
Ki for glyphosate [2]: improved
Ki for glyphosate ([3]; relative to GRG1): improved
Ki for glyphosate ([4]; relative to GRG1): improved
Seed Set [5]: YES
Survival at 2 weeks post-spray [5]: YES
Chlorosis ([5]; two weeks): NONE
Stunting ([5]; two weeks): NONE
Seed Set [6]: YES
Survival at 2 weeks post-spray [6]: YES
Chlorosis ([6]; two weeks): NONE
Stunting ([6]; two weeks): NONE

GRG1(EVO8): variant after mutagenesis of grg1 (evo6) in the Q-loop region (SEQ ID NO:65) (ITSEGVKPVAPFIKCGESGLSGRMFPPIVALSK; GRG1 variant - GRG1(4S-60))
kinetic properties / parameters (in words) [7]: further improved kinetic properties over GRG1(EVO6)
growth on glyphosate plates (glyphosate resistance in E. coli) [8]: glyphosate resistant

GRG1(EVO7): variant after mutagenesis of grg1 (evo6) in the Q-loop region (SEQ ID NO:64) (ITSEGVKPVAPFIKCGESGLSVRAFTPIVALSK; GRG1 variant - GRG1(4S-39))
kinetic properties / parameters (in words) [7]: further improved kinetic properties over GRG1(EVO6)
growth on glyphosate plates (glyphosate resistance in E. coli) [8]: glyphosate resistant

C=C(OP(=O)(O)O)C(=O)O [PEP, phosphoenolpyruvic acid]
Km for PEP ([3]; vs GRG1): virtually identical to GRG1
Km for PEP [4]: reasonable, though somewhat elevated

B1: GRG1(EVO5): GRG1 Q-loop variant from Library 4 (SEQ ID NO:56) (protein)
chain: MKVTIQPGDLTGIIQSPASKSSMQRACAAALVAKGISEIINPGHSNDDKAARDIVSRLGARLEDQPDGSLQITSEGVKPVAPFIECGESGLSSRIFTPLVALSKEEVTIKGSGSLVTRPMDFFDEILPHLGVKVKSNQGKLPLVIQGPLKPADVTVDGSLSSQFLTGLLLAYAAADASDVAIKVTNLKSRPYIDLTLDVMKRFGLKTPENRNYEEFYFKAGNVYDETKMQRYTVEGDWSGGAFLLVAGAIAGPITVRGLDIASTQADKAIVQALMSANAGIAIDAKEIKLHPADLNAFEFDATDCPDLFPPLVALASYCKGETKIKGVSRLAHKESDRGLTLQDEFGKMGVEIHLEGDLMRVIGGKGVKGAEVSSRHDHRIAMACAVAALKAVGETTIEHAEAVNKSYPDFYSDLKQLGGVVSLNHQFNFS
modifications: GRG1 variant - GRG1(EVO5)
Km / affinity for PEP (in words) [7]: good affinity for PEP
glyphosate resistance (in words, kinetic analysis) ([7]; relative to GRG1): improved glyphosate resistance

B2: GRG1(EVO6): GRG1(EVO5) with N186 to K change (SEQ ID NO:57) (protein)
chain: B1 chain with N186K
modifications: GRG1 variant - GRG1(EVO6)
soluble protein [9]: substantial increase in soluble protein

B3: GRG1(5.2.B6): GRG1(EVO5) with V351 to A change (SEQ ID NO:58) (protein)
chain: B1 chain with I95L, N186K
modifications: GRG1 variant - GRG1(EVO7)
soluble protein [9]: substantial increase in soluble protein

Source: patent US20070295251A1, “EPSP SYNTHASES: COMPOSITIONS AND METHODS OF USE” (Athenix Corporation, priority 2006, published 2007)
